Reference: PubChem BioAssay AID248 (DTP/NCI, 2004)
Values joined by “and” are separate entries in the source; they are usually repeats but may differ in a detail not shown here. Equal values may be shown once. Toxic doses and inconclusive results are not listed. Rule as the data show it: active = T/C of 150% or more; inactive = T/C below 125%. Peptide text beside a SMILES is read from it. * marks the point of attachment. Trt = c1ccc(C(c2ccccc2)(c2ccccc2)*)cc1; Boc = CC(C)(C)OC(=O)*

System: L1210 leukemia ip in BDF1 mice, survival T/C
Test: NCI In Vivo Anticancer Drug Screen. Data for tumor model L1210 Leukemia (intraperitoneal) in B6D2F1 (BDF1) mice
Settings: endpoint: mean survival time, higher = longer survival
Method in brief: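 Transplantable tumor model; survival measured in treated vs vehicle control mice. Value = treated/control.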

[1] = dose: 100.0 mg/kg/injection, schedule: Q01DX001 (ip), vehicle: saline with Tween-80
[2] = dose: 100.0 mg/kg/injection, schedule: Q01DX009 (ip), vehicle: Klucel (hydroxypropylcellulose) (HPC)
[3] = dose: 200.0 mg/kg/injection, schedule: Q01DX009 (ip), vehicle: Klucel (hydroxypropylcellulose) (HPC)
[4] = dose: 400.0 mg/kg/injection, schedule: Q01DX009 (ip), vehicle: Klucel (hydroxypropylcellulose) (HPC)
[5] = dose: 100.0 mg/kg/injection, schedule: Q04DX003 (ip), vehicle: Klucel (hydroxypropylcellulose) (HPC)
[6] = dose: 200.0 mg/kg/injection, schedule: Q04DX003 (ip), vehicle: Klucel (hydroxypropylcellulose) (HPC)
[7] = dose: 100.0 mg/kg/injection, schedule: Q04DX002 (ip), vehicle: gum acacia
[8] = dose: 100.0 mg/kg/injection, schedule: Q01DX001 (ip), vehicle: Klucel (hydroxypropylcellulose) (HPC)
[9] = dose: 200.0 mg/kg/injection, schedule: Q01DX001 (ip), vehicle: Klucel (hydroxypropylcellulose) (HPC)
[10] = dose: 400.0 mg/kg/injection, schedule: Q01DX001 (ip), vehicle: Klucel (hydroxypropylcellulose) (HPC)
[11] = dose: 25.0 mg/kg/injection, schedule: Q04DX003 (ip), vehicle: saline with Tween-80
[12] = dose: 50.0 mg/kg/injection, schedule: Q04DX003 (ip), vehicle: saline with Tween-80
[13] = dose: 100.0 mg/kg/injection, schedule: Q04DX003 (ip), vehicle: saline with Tween-80
[14] = dose: 50.0 mg/kg/injection, schedule: Q01DX009 (ip), vehicle: Klucel (hydroxypropylcellulose) (HPC)
[15] = dose: 200.0 mg/kg/injection, schedule: Q04DX003 (ip), vehicle: saline with Tween-80
[16] = dose: 400.0 mg/kg/injection, schedule: Q04DX003 (ip), vehicle: saline with Tween-80

Measured: T/C

CC1(C)N=C(N)N=C(N)N1c1ccc(CCc2ccc(Cl)cc2S(=O)(=O)F)c(Cl)c1
inactive: [1] 91 % of control | dose: 200.0 mg/kg/injection, schedule: Q01DX001 (ip), vehicle: saline with Tween-80 94 % of control | dose: 400.0 mg/kg/injection, schedule: Q01DX001 (ip), vehicle: saline with Tween-80 97 % of control

CC(C)C1CCC2=C(CCC3C(C)(C(=O)O)CCCC23C)C1 (configuration not stated)
inactive: dose: 100.0 mg/kg/injection, schedule: Q01DX009 (ip), vehicle: saline with Tween-80 89 % of control | dose: 200.0 mg/kg/injection, schedule: Q01DX009 (ip), vehicle: saline with Tween-80 91 % of control | dose: 400.0 mg/kg/injection, schedule: Q01DX009 (ip), vehicle: saline with Tween-80 89 % of control

CN(C)c1nc(N)c(N)c(N)n1
inactive: dose: 25.0 mg/kg/injection, schedule: Q01DX001 (ip), vehicle: saline with Tween-80 101 % of control | dose: 50.0 mg/kg/injection, schedule: Q01DX001 (ip), vehicle: saline with Tween-80 107 % of control | [1] 96 % of control and 97 % of control

CN(C)c1ccc(/C=C2\N=C(c3ccc([N+](=O)[O-])cc3)OC2=O)cc1
inactive: [2] 96 % of control | [3] 101 % of control | [4] 93 % of control

Cc1cccc(C)c1NC(=O)Nc1ccc(Cl)c(Cl)c1
inactive: [2] 97 % of control | [5] 95 % of control | [3] 94 % of control | [6] 86 % of control | [4] 94 % of control | dose: 400.0 mg/kg/injection, schedule: Q04DX003 (ip), vehicle: Klucel (hydroxypropylcellulose) (HPC) 91 % of control

Oc1ccc(N=Cc2ccccc2)cc1
inactive: [7] 98 % of control | dose: 200.0 mg/kg/injection, schedule: Q04DX002 (ip), vehicle: gum acacia 109 % of control | dose: 400.0 mg/kg/injection, schedule: Q04DX002 (ip), vehicle: gum acacia 106 % of control

CC(O)C(Cl)(Cl)Cl (configuration not stated)
inactive: dose: 75.0 mg/kg/injection, schedule: Q01DX001 (ip), vehicle: carboxymethylcellulose (CMC) 100 % of control | dose: 150.0 mg/kg/injection, schedule: Q01DX001 (ip), vehicle: carboxymethylcellulose (CMC) 98 % of control | dose: 300.0 mg/kg/injection, schedule: Q01DX001 (ip), vehicle: carboxymethylcellulose (CMC) 106 % of control

OCC1CCCCC1Cc1ccc(F)c2ccccc12 (configuration not stated)
inactive: [8] 98 % of control | [9] 93 % of control | [10] 102 % of control

CC(C)(C)OC(=O)NCCCCC(NC(=O)CNC(=O)C(CSC(c1ccccc1)(c1ccccc1)c1ccccc1)NC(=O)OC(C)(C)C)C(=O)O (configuration not stated) (Boc-Cys(Trt)-Gly-Lys(Boc)-OH; configuration not given here)
inactive: [11] 96 % of control | [12] 98 % of control | [13] 94 % of control

CSc1ncc2c(=O)n(C)[nH]c2n1
inactive: [8] 93 % of control | [9] 92 % of control | [10] 90 % of control

O=S(=O)(Cl)c1ccccc1Cl
inactive: dose: 50.0 mg/kg/injection, schedule: Q01DX001 (ip), vehicle: Klucel (hydroxypropylcellulose) (HPC) 101 % of control

CCCCCCCCC(N)C(=O)O (configuration not stated)
inactive: dose: 25.0 mg/kg/injection, schedule: Q04DX002 (ip), vehicle: gum acacia 107 % of control | dose: 50.0 mg/kg/injection, schedule: Q04DX002 (ip), vehicle: Klucel (hydroxypropylcellulose) (HPC) 91 % of control | dose: 50.0 mg/kg/injection, schedule: Q04DX002 (ip), vehicle: gum acacia 95 % of control | dose: 100.0 mg/kg/injection, schedule: Q04DX002 (ip), vehicle: Klucel (hydroxypropylcellulose) (HPC) 98 % of control | [7] 114 % of control | dose: 200.0 mg/kg/injection, schedule: Q04DX002 (ip), vehicle: Klucel (hydroxypropylcellulose) (HPC) 95 % of control

O=C(CC(Cl)(C(F)(F)F)C(F)(F)F)c1cccc([N+](=O)[O-])c1
inactive: dose: 12.5 mg/kg/injection, schedule: Q01DX009 (ip), vehicle: saline with Tween-80 91 % of control | dose: 12.5 mg/kg/injection, schedule: Q04DX003 (ip), vehicle: saline with Tween-80 96 % of control | dose: 25.0 mg/kg/injection, schedule: Q01DX009 (ip), vehicle: saline with Tween-80 96 % of control | [11] 98 % of control | dose: 50.0 mg/kg/injection, schedule: Q01DX009 (ip), vehicle: saline with Tween-80 96 % of control | [12] 100 % of control

OC1(c2ccncc2)CCc2ccccc21 (configuration not stated)
inactive: [14] 101 % of control | [2] 98 % of control | [5] 97 % of control | [3] 102 % of control | [6] 101 % of control

Cc1cc(C#N)n(O)c1
inactive: [14] 103 % of control | [2] 100 % of control | [3] 101 % of control

COc1ccc(OC)c2[nH]c(=O)c(-c3ccccc3)nc12
inactive: [13] 97 % of control | [15] 95 % of control | [16] 91 % of control

CN(C)CCn1c2ccccc2c2ccccc21
inactive: [13] 92 % of control | [15] 92 % of control | [16] 95 % of control

CC1CC(C)(C)N=C(C(Cc2ccccc2)CC(O)c2ccccc2)O1 (configuration not stated)
inactive: [11] 94 % of control | [12] 92 % of control | [13] 86 % of control and 90 % of control

CN1CCC2(CC1)C(=O)N(c1ccccc1)C(=O)C2c1ccccc1 (configuration not stated)
inactive: [8] 102 % of control | [9] 98 % of control

C=CCCCCCCCCC
inactive: dose: 100.0 mg/kg/injection, schedule: Q04DX002 (ip), vehicle: saline with Tween-80 93 % of control | dose: 200.0 mg/kg/injection, schedule: Q04DX002 (ip), vehicle: saline with Tween-80 111 % of control | dose: 400.0 mg/kg/injection, schedule: Q04DX002 (ip), vehicle: saline with Tween-80 104 % of control

N#CC(OC(=O)c1ccccc1)c1ccccc1 (configuration not stated)
inactive: dose: 75.0 mg/kg/injection, schedule: Q01DX001 (ip), vehicle: other 104 % of control | dose: 150.0 mg/kg/injection, schedule: Q01DX001 (ip), vehicle: other 105 % of control

COC(=O)CC(O)C(=O)OC (configuration not stated)
inactive: dose: 100.0 mg/kg/injection, schedule: Q01DX009 (ip), vehicle: saline 102 % of control | dose: 100.0 mg/kg/injection, schedule: Q04DX003 (ip), vehicle: saline 109 % of control | dose: 200.0 mg/kg/injection, schedule: Q01DX009 (ip), vehicle: saline 93 % of control | dose: 200.0 mg/kg/injection, schedule: Q04DX003 (ip), vehicle: saline 104 % of control | dose: 400.0 mg/kg/injection, schedule: Q01DX009 (ip), vehicle: saline 96 % of control | dose: 400.0 mg/kg/injection, schedule: Q04DX003 (ip), vehicle: saline 110 % of control

COc1cc2c(cc1OC)C(=O)C(c1ccc3c(c1)OCO3)CC2 (configuration not stated)
inactive: dose: 100.0 mg/kg/injection, schedule: Q01DX009 (ip), vehicle: water 102 % of control | dose: 100.0 mg/kg/injection, schedule: Q04DX003 (ip), vehicle: water 94 % of control | dose: 200.0 mg/kg/injection, schedule: Q01DX009 (ip), vehicle: water 91 % of control | dose: 200.0 mg/kg/injection, schedule: Q04DX003 (ip), vehicle: water 92 % of control | dose: 400.0 mg/kg/injection, schedule: Q01DX009 (ip), vehicle: water 101 % of control | dose: 400.0 mg/kg/injection, schedule: Q04DX003 (ip), vehicle: water 94 % of control
